Data from patent publication EP0550016A1, “Novel quinolone carboxylic acid derivatives and processes for preparing same” (KOREA RESEARCH INSTITUTE OF CHEMICAL TECHNOLOGY, priority 1991, dated 1993).
≈ marks a conversion by molar mass, not a printed value. Like-named read-outs stand apart in the source and are kept apart here.

Key:
[1] = tested on: Streptococcus pyogenes 308 A; assay: In vitro anti-bacterial activity test (MIC, two-fold dilution method) against the standard strains; assay type: cell-based; conditions: Table 1 strain 1: Streptococcus pyogenes 308 A
[2] = tested on: Streptococcus pyogenes 77 A; assay: as above; assay type: cell-based; conditions: Table 1 strain 2: Streptococcus pyogenes 77 A; read-out: MIC
[3] = tested on: Streptococcus faecium MD 8b; assay: as above; assay type: cell-based; conditions: Enterococcus faecium, MD8B; Table 1 strain 3: Streptococcus faecium MD 8b; read-out: MIC
[4] = tested on: Staphylococcus aureus SG 511; assay: as above; assay type: cell-based; conditions: SG511; Table 1 strain 4: Staphylococcus aureus SG 511
[5] = tested on: Staphylococcus aureus 285; assay: as above; assay type: cell-based; conditions: Table 1 strain 5: Staphylococcus aureus 285; read-out: MIC
[6] = tested on: Staphylococcus aureus 503; assay: as above; assay type: cell-based; conditions: Table 1 strain 6: Staphylococcus aureus 503; read-out: MIC
Escherichia coli DC 0 [7] = assay: as above; assay type: cell-based; conditions: DC0; Table 1 strain 7: Escherichia coli DC 0
Escherichia coli DC 0 [8] = assay: as above; assay type: cell-based; conditions: DC0; Table 1 strain 8: Escherichia coli DC 0
Escherichia coli DC 2 = assay: as above; assay type: cell-based; conditions: DC2; Table 1 strain 9: Escherichia coli DC 2; read-out: MIC
Escherichia coli OTEM = assay: as above; assay type: cell-based; conditions: Table 1 strain 10: Escherichia coli OTEM
Escherichia coli 1507 E = assay: as above; assay type: cell-based; conditions: Table 1 strain 11: Escherichia coli 1507 E
[9] = tested on: Pseudomonas aeruginosa 9027; assay: as above; assay type: cell-based; conditions: Table 1 strain 12: Pseudomonas aeruginosa 9027
[10] = tested on: Pseudomonas aeruginosa 1592 E; assay: as above; assay type: cell-based; conditions: Table 1 strain 13: Pseudomonas aeruginosa 1592 E
[11] = tested on: Pseudomonas aeruginosa 1771; assay: as above; assay type: cell-based; conditions: Table 1 strain 14: Pseudomonas aeruginosa 1771
[12] = tested on: Pseudomonas aeruginosa 1771 M; assay: as above; assay type: cell-based; conditions: Table 1 strain 15: Pseudomonas aeruginosa 1771 M
Salmonella typhimurium = assay: as above; assay type: cell-based; conditions: Salmonella enterica; Table 1 strain 16: Salmonella typhimurium
[13] = tested on: Klebsiella aerogenes 1082 E; assay: as above; assay type: cell-based; conditions: Table 1 strain 17: Klebsiella aerogenes 1082 E
[14] = tested on: Klebsiella aerogenes 1522 E; assay: as above; assay type: cell-based; conditions: Table 1 strain 18: Klebsiella aerogenes 1522 E
[15] = tested on: Enterobacter cloacae P 99; assay: as above; assay type: cell-based; conditions: P99; Table 1 strain 19: Enterobacter cloacae P 99
[16] = tested on: Enterobacter cloacae 1321 E; assay: as above; assay type: cell-based; conditions: Table 1 strain 20: Enterobacter cloacae 1321 E
[17] = tested on: Staphylococcus aureus 88 E; assay: In vitro anti-bacterial activity test (MIC, two-fold dilution method), Table 2 strains; assay type: cell-based; conditions: Table 2 strain 1: Staphylococcus aureus 88 E
[18] = tested on: Staphylococcus aureus 121 E; assay: as above; assay type: cell-based; conditions: Table 2 strain 2: Staphylococcus aureus 121 E; read-out: MIC
[19] = tested on: Staphylococcus aureus 208 E; assay: as above; assay type: cell-based; conditions: Table 2 strain 3: Staphylococcus aureus 208 E; read-out: MIC
[20] = tested on: Staphylococcus aureus 256 E; assay: as above; assay type: cell-based; conditions: Table 2 strain 4: Staphylococcus aureus 256 E
[21] = tested on: Staphylococcus aureus 690 E; assay: as above; assay type: cell-based; conditions: Table 2 strain 5: Staphylococcus aureus 690 E; read-out: MIC
[22] = tested on: Staphylococcus aureus 692 E; assay: as above; assay type: cell-based; conditions: Table 2 strain 6: Staphylococcus aureus 692 E
[23] = tested on: Staphylococcus aureus 693 E; assay: as above; assay type: cell-based; conditions: Table 2 strain 7: Staphylococcus aureus 693 E; read-out: MIC
[24] = tested on: Staphylococcus aureus 694 E; assay: as above; assay type: cell-based; conditions: Table 2 strain 8: Staphylococcus aureus 694 E; read-out: MIC
[25] = tested on: Staphylococcus aureus 695 E; assay: as above; assay type: cell-based; conditions: Table 2 strain 9: Staphylococcus aureus 695 E; read-out: MIC
[26] = tested on: Staphylococcus aureus 697 E; assay: as above; assay type: cell-based; conditions: Table 2 strain 10: Staphylococcus aureus 697 E
[27] = tested on: Staphylococcus aureus 701 E; assay: as above; assay type: cell-based; conditions: Table 2 strain 11: Staphylococcus aureus 701 E; read-out: MIC
[28] = tested on: Staphylococcus aureus 703 E; assay: as above; assay type: cell-based; conditions: Table 2 strain 12: Staphylococcus aureus 703 E; read-out: MIC
[29] = tested on: Staphylococcus aureus 705 E; assay: as above; assay type: cell-based; conditions: Table 2 strain 13: Staphylococcus aureus 705 E; read-out: MIC
[30] = tested on: Staphylococcus aureus 706 E; assay: as above; assay type: cell-based; conditions: Table 2 strain 14: Staphylococcus aureus 706 E; read-out: MIC
[31] = tested on: Staphylococcus aureus 707 E; assay: as above; assay type: cell-based; conditions: Table 2 strain 15: Staphylococcus aureus 707 E; read-out: MIC
[32] = tested on: Staphylococcus aureus 708 E; assay: as above; assay type: cell-based; conditions: Table 2 strain 16: Staphylococcus aureus 708 E
[33] = tested on: Staphylococcus aureus 711 E; assay: as above; assay type: cell-based; conditions: Table 2 strain 17: Staphylococcus aureus 711 E; read-out: MIC
[34] = tested on: Staphylococcus aureus 714 E; assay: as above; assay type: cell-based; conditions: Table 2 strain 18: Staphylococcus aureus 714 E; read-out: MIC
[35] = tested on: Staphylococcus aureus 725 E; assay: as above; assay type: cell-based; conditions: Table 2 strain 19: Staphylococcus aureus 725 E; read-out: MIC
P. mirabilis = assay: Preventive effect against the systemic infection; assay type: in vivo; conditions: Proteus mirabilis, 168 h, NMRI mice, survival on day 7, read-out: ED₅₀
Protocol: (§1) 10 fold of the pathogen which leads to 100% lethality were injected intraperitoneally to male and female NMRI mice weighing 18 to 20g. Immediately and after 4 hours, the dose of test compounds which was determined by two-fold serial dilution method was administered orally or subcutaneously; and on day 7, the effectiveness was evaluated in terms of ED₅₀ calculated from the number of survived mice by the probit analysis.

S. aureus 17740 = assay: Preventive effect against the systemic infection; assay type: in vivo; conditions: Staphylococcus aureus, 168 h, NMRI mice, survival on day 7, read-out: ED₅₀
Protocol: as §1

**Q.** What does the source list for `CC1COc2c(N3CCN(C)CC3)c(F)cc3c(=O)c(C(=O)O)cn1c23` (stereo not shown) [Ofloxacin, ofloxacin, reference compound]?
**A.** MIC [1]: 3.12 µg/mL (≈ 8.65 µM); MIC [2]: 1.56 µg/mL (≈ 4.33 µM); MIC [3]: 0.781 µg/mL (≈ 2.16 µM); MIC [4]: 0.195 µg/mL (≈ 0.54 µM); MIC [5]: 0.391 µg/mL (≈ 1.08 µM); MIC [6]: 0.391 µg/mL (≈ 1.08 µM); MIC (Escherichia coli DC 0 [7]): 0.013 µg/mL (≈ 0.036 µM); MIC (Escherichia coli DC 0 [8]): 0.391 µg/mL (≈ 1.08 µM); MIC (Escherichia coli DC 2): 0.195 µg/mL (≈ 0.54 µM); MIC (Escherichia coli OTEM): 0.049 µg/mL (≈ 0.136 µM); MIC (Escherichia coli 1507 E): 0.049 µg/mL (≈ 0.136 µM); MIC [9]: 1.56 µg/mL (≈ 4.33 µM); MIC [10]: 1.56 µg/mL (≈ 4.33 µM); MIC [11]: 1.56 µg/mL (≈ 4.33 µM); MIC [12]: 0.391 µg/mL (≈ 1.08 µM); MIC (Salmonella typhimurium): 0.025 µg/mL (≈ 0.0692 µM); MIC [13]: < 2 ng/mL; MIC [14]: 0.049 µg/mL (≈ 0.136 µM); MIC [15]: 0.025 µg/mL (≈ 0.0692 µM); MIC [16]: 0.013 µg/mL (≈ 0.036 µM); MIC [17]: 0.781 µg/mL (≈ 2.16 µM); MIC [18]: 0.781 µg/mL (≈ 2.16 µM); MIC [19]: 0.781 µg/mL (≈ 2.16 µM); MIC [20]: 0.781 µg/mL (≈ 2.16 µM); MIC [21]: 0.391 µg/mL (≈ 1.08 µM); MIC [22]: 0.391 µg/mL (≈ 1.08 µM); MIC [23]: 0.391 µg/mL (≈ 1.08 µM); MIC [24]: 0.781 µg/mL (≈ 2.16 µM); MIC [25]: 0.391 µg/mL (≈ 1.08 µM); MIC [26]: 0.391 µg/mL (≈ 1.08 µM); MIC [27]: 0.781 µg/mL (≈ 2.16 µM); MIC [28]: 0.781 µg/mL (≈ 2.16 µM); MIC [29]: 0.781 µg/mL (≈ 2.16 µM); MIC [30]: 0.781 µg/mL (≈ 2.16 µM); MIC [31]: 0.781 µg/mL (≈ 2.16 µM); MIC [32]: 0.195 µg/mL (≈ 0.54 µM); MIC [33]: 0.391 µg/mL (≈ 1.08 µM); MIC [34]: 0.391 µg/mL (≈ 1.08 µM); MIC [35]: 0.391 µg/mL (≈ 1.08 µM); ED50 (P. mirabilis; Oral Administration): 2.21 mg/kg; ED50 (P. mirabilis; sc, Subcutaneous Injection): 0.33 mg/kg; ED50 (S. aureus 17740; Oral Administration): > 200 mg/kg; ED50 (S. aureus 17740; sc, Subcutaneous Injection): 200 mg/kg
